Measured values as given in patent US20260015350A1, “AZAQUINAZOLINE PAN-KRAS INHIBITORS” (Mirati Therapeutics, Inc., priority 2022, published 2026).

How the values were obtained:
KRas^WT = target: T1, KRas^WT (Homo sapiens, UniProt P01116); experiment: KRas binding assay (TR-FRET tracer displacement), KRas WT; details: TR-FRET tracer displacement, KRas WT
T1 construct: Biotinylated KRas (corresponding to amino acids 1-169, produced at Accelegan Inc.); biotin (biotinylated); purchased Accelegan Inc
T1 sequence (P01116 1-169 isoform P01116-2): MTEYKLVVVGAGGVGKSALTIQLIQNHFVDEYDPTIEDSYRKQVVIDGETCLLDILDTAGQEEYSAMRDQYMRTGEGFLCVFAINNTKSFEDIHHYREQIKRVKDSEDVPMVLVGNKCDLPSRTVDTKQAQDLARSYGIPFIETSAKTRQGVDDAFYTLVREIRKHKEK

KRas^G12A = target: T2, KRas^G12A (Homo sapiens, UniProt P01116, G12A); experiment: KRas binding assay (TR-FRET tracer displacement), KRas G12A; details: TR-FRET tracer displacement, KRas G12A
T2 construct: Biotinylated KRas (corresponding to amino acids 1-169, produced at Accelegan Inc.); biotin (biotinylated); purchased Accelegan Inc
T2 sequence (P01116 1-169 isoform P01116-2 G12A): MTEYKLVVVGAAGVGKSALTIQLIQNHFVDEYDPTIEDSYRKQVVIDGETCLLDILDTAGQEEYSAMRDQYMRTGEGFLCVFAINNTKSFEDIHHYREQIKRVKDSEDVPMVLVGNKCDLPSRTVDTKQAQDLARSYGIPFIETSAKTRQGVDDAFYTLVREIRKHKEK

KRas^G12C = target: T3, KRas^G12C (Homo sapiens, UniProt P01116, G12C); experiment: KRas binding assay (TR-FRET tracer displacement), KRas G12C; details: TR-FRET tracer displacement, KRas G12C
T3 construct: Biotinylated KRas (corresponding to amino acids 1-169, produced at Accelegan Inc.); biotin (biotinylated); purchased Accelegan Inc
T3 sequence (P01116 1-169 isoform P01116-2 G12C): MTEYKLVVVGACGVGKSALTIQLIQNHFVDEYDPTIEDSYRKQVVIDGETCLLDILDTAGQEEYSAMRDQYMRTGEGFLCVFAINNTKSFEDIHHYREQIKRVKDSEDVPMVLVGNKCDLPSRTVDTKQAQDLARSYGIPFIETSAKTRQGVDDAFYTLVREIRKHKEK

KRas^G12D = target: T4, KRas^G12D (Homo sapiens, UniProt P01116, G12D); experiment: KRas binding assay (TR-FRET tracer displacement), KRas G12D
T4 construct: Biotinylated KRas (corresponding to amino acids 1-169, produced at Accelegan Inc.); biotin (biotinylated); purchased Accelegan Inc
T4 sequence (P01116 1-169 isoform P01116-2 G12D): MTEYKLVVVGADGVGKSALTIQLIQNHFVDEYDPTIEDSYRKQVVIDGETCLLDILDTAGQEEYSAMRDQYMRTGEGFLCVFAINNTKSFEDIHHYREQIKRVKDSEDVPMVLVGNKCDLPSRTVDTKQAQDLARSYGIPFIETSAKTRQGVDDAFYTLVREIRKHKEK

KRas^G12R = target: T5, KRas^G12R (Homo sapiens, UniProt P01116, G12R); experiment: KRas binding assay (TR-FRET tracer displacement), KRas G12R
T5 construct: Biotinylated KRas (corresponding to amino acids 1-169, produced at Accelegan Inc.); biotin (biotinylated); purchased Accelegan Inc
T5 sequence (P01116 1-169 isoform P01116-2 G12R): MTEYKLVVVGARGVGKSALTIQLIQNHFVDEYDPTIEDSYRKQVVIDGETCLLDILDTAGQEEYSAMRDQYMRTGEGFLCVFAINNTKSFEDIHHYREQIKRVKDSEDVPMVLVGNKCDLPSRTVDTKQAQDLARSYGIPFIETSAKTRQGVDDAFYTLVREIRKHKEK

KRas^G12S = target: T6, KRas^G12S (Homo sapiens, UniProt P01116, G12S); experiment: KRas binding assay (TR-FRET tracer displacement), KRas G12S; details: TR-FRET tracer displacement, KRas G12S
T6 construct: Biotinylated KRas (corresponding to amino acids 1-169, produced at Accelegan Inc.); biotin (biotinylated); purchased Accelegan Inc
T6 sequence (P01116 1-169 isoform P01116-2 G12S): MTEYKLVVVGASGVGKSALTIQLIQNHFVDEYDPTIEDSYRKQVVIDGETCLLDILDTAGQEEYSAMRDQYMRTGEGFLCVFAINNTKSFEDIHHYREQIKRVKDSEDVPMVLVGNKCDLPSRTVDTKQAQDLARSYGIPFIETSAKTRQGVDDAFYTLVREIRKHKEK

KRas^G12V = target: T7, KRas^G12V (Homo sapiens, UniProt P01116, G12V); experiment: KRas binding assay (TR-FRET tracer displacement), KRas G12V
T7 construct: Biotinylated KRas (corresponding to amino acids 1-169, produced at Accelegan Inc.); biotin (biotinylated); purchased Accelegan Inc
T7 sequence (P01116 1-169 isoform P01116-2 G12V): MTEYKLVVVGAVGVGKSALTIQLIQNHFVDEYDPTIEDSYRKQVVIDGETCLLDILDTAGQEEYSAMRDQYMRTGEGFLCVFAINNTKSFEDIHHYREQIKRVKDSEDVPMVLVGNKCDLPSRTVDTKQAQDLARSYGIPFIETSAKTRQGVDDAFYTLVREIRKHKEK

KRas^G13D = target: T8, KRas^G13D (Homo sapiens, UniProt P01116, G13D); experiment: KRas binding assay (TR-FRET tracer displacement), KRas G13D; details: TR-FRET tracer displacement, KRas G13D
T8 construct: Biotinylated KRas (corresponding to amino acids 1-169, produced at Accelegan Inc.); biotin (biotinylated); purchased Accelegan Inc
T8 sequence (P01116 1-169 isoform P01116-2 G13D): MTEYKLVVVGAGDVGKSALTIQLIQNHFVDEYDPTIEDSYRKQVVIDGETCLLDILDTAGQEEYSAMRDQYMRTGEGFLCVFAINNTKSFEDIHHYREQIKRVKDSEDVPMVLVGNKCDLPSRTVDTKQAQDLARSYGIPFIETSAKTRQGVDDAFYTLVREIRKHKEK

KRas^Q61H = target: T9, KRas^Q61H (Homo sapiens, UniProt P01116, Q61H); experiment: KRas binding assay (TR-FRET tracer displacement), KRas Q61H; details: TR-FRET tracer displacement, KRas Q61H
T9 construct: Biotinylated KRas (corresponding to amino acids 1-169, produced at Accelegan Inc.); biotin (biotinylated); purchased Accelegan Inc
T9 sequence (P01116 1-169 isoform P01116-2 Q61H): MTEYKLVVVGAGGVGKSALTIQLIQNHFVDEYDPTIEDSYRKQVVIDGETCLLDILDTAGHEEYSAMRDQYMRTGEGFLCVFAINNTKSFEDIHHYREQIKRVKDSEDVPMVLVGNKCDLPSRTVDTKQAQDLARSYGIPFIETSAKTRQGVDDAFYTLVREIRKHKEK

[1] = test system: KRas-mediated phosphorylation of ERK in MKN1 cells; experiment: Inhibition of KRas-mediated phosphorylation of ERK (Cisbio HTRF pERK), MKN1 cells; format: cell-based; details: Homo sapiens, MKN-1
Method in brief: (§1)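 Overnight culture at 37° C./5% CO2 in RPMI containing 10% FBS, seeded 6,000 cells per well, preceded the assay. A covered 4-hour incubation at room temperature followed, then HTRF signal for phosphorylated ERK was measured.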

[2] = test system: KRas-mediated phosphorylation of ERK in PSN1 cells; experiment: Inhibition of KRas-mediated phosphorylation of ERK (Cisbio HTRF pERK), PSN1 cells; format: cell-based; details: Homo sapiens
Method in brief: as §1

[3] = test system: KRas-mediated phosphorylation of ERK in AsPC-1 cells; experiment: Inhibition of KRas-mediated phosphorylation of ERK (Cisbio HTRF pERK), AsPC-1 cells; format: cell-based; details: Homo sapiens, ASPC1, AsPC-1 cells; HTRF pERK
Method in brief: (§2)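 Phosphorylated ERK was quantified by HTRF using d2-conjugate and Cryptate antibodies added to lysates for 2 hrs at room temperature.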

[4] = test system: KRas-mediated phosphorylation of ERK in H727 cells; experiment: Inhibition of KRas-mediated phosphorylation of ERK (Cisbio HTRF pERK), H727 cells; format: cell-based; details: Homo sapiens, NCI-H727, H727 cells; HTRF pERK
Method in brief: as §2

[5] = test system: KRas-mediated phosphorylation of ERK in A549 cells; experiment: Inhibition of KRas-mediated phosphorylation of ERK (Cisbio HTRF pERK), A549 cells; format: cell-based; details: Homo sapiens, HTRF pERK
Method in brief: (§3)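 6,000 cells/well; cpd 10 uM top, 3-fold x10, 0.8% DMSO final; 3 hr incubation; Min ctrl Trametinib 0.2 uM; lysis 40 min 4° C shaking; d2 + Cryptate Ab mix, 2 hr RT; HTRF read.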

[6] = test system: KRas-mediated phosphorylation of ERK in H460 cells; experiment: Inhibition of KRas-mediated phosphorylation of ERK (Cisbio HTRF pERK), H460 cells; format: cell-based; details: Homo sapiens, NCI-H460, HTRF pERK
Method in brief: as §2

[7] = test system: KRas-mediated phosphorylation of ERK in HCT116 cells; experiment: Inhibition of KRas-mediated phosphorylation of ERK (Cisbio HTRF pERK), HCT116 cells; format: cell-based; details: Homo sapiens, HCT-116, HTRF pERK
Method in brief: as §3

[8] = test system: KRas-mediated phosphorylation of ERK in H358 cells; experiment: Inhibition of KRas-mediated phosphorylation of ERK (Cisbio HTRF pERK), H358 cells; format: cell-based; details: Homo sapiens, NCI-H358, HTRF pERK
Method in brief: as §2

| SMILES | IC50 (KRas^WT) | IC50 (KRas^G12A) | IC50 (KRas^G12C) | IC50 (KRas^G12D) | IC50 (KRas^G12R) | IC50 (KRas^G12S) | IC50 (KRas^G12V) | IC50 (KRas^G13D) | IC50 (KRas^Q61H) | IC50 [1] | IC50 [2] | IC50 [3] | IC50 [4] | IC50 [5] | IC50 [6] | IC50 [7] | IC50 [8] |
| --- | --- | --- | --- | --- | --- | --- | --- | --- | --- | --- | --- | --- | --- | --- | --- | --- | --- |
| O[C@@H]1C[C@H]2C[C@@H]1CN(c1nc(OC[C@@]34CCCN3C[C@H](F)C4)nc3c(F)c(-c4cccc5ccccc45)ncc13)C2 [Example 724, (1R,5R,6R)-3-(8-fluoro-2-(((2R,7aS)-2-fluorohexahydro-1H-pyrrolizin-7a-yl)methoxy)-7-(naphthalen-1-yl)pyrido[4,3-d]pyrimidin-4-yl)-3-azabicyclo[3.2.1]octan-6-ol] | 419 nM | 301 nM | 185 nM | 1590 nM | 720 nM | 170 nM | 404 nM | 585 nM | 612 nM |  |  |  |  |  |  |  |  |
| CCc1c(F)ccc2cc(O)cc(-c3ncc4c(N5CCCn6nc(C(=O)N(C)C)cc6C5)nc(OCC56CCCN5C/C(=C\F)C6)nc4c3F)c12 (stereo not drawn) [Example 795, (Z)-5-(7-(8-ethyl-7-fluoro-3-hydroxynaphthalen-1-yl)-8-fluoro-2-((2-(fluoromethylene)tetrahydro-1H-pyrrolizin-7a(5H)-yl)methoxy)pyrido[4,3-d]pyrimidin-4-yl)-N,N-dimethyl-5,6,7,8-tetrahydro-4H-pyrazolo[1,5-a][1,4]diazepine-2-carboxamide] | < 2 nM |  | < 2 nM | < 2 nM |  | < 2 nM | < 2 nM |  |  | 4 nM | 4790 nM | 2 nM | 11 nM | 41 nM | 28 nM | 130 nM | 4 nM |
| C=C1CN2CCCC2(COc2nc(N3C[C@@H]4C[C@H](C3)[C@H](O)C4)c3cnc(-c4cc(O)cc5ccc(F)c(CC)c45)c(F)c3n2)C1 (stereo partly drawn) [Example 800, (1R,5R,6R)-3-(7-(8-ethyl-7-fluoro-3-hydroxynaphthalen-1-yl)-8-fluoro-2-((2-methylenetetrahydro-1H-pyrrolizin-7a(5H)-yl)methoxy)pyrido[4,3-d]pyrimidin-4-yl)-3-azabicyclo[3.2.1]octan-6-ol] | < 2 nM |  | < 2 nM | < 2 nM |  | < 2 nM | < 2 nM |  |  | 0.3 nM | 587 nM | 6 nM | 3 nM | 3 nM | 3 nM | 13 nM | 1 nM |
| CCc1c(F)ccc2cc(O)cc(-c3ncc4c(N5C[C@@H]6C[C@H](C5)[C@H](O)C6)nc(OCC56CCCN5C/C(=C\F)C6)nc4c3F)c12 (stereo partly drawn) [Example 793, (1R,5R,6R)-3-(7-(8-ethyl-7-fluoro-3-hydroxynaphthalen-1-yl)-8-fluoro-2-(((Z)-2-(fluoromethylene)tetrahydro-1H-pyrrolizin-7a(5H)-yl)methoxy)pyrido[4,3-d]pyrimidin-4-yl)-3-azabicyclo[3.2.1]octan-6-ol] | < 2 nM |  | < 2 nM | < 2 nM |  | < 2 nM | < 2 nM |  |  | 0.3 nM | 246 nM | 3 nM | 3 nM | 1 nM | 2 nM | 9 nM | 1 nM |

Continued, values first:

| IC50 (KRas^WT) | IC50 (KRas^G12A) | IC50 (KRas^G12C) | IC50 (KRas^G12D) | IC50 (KRas^G12R) | IC50 (KRas^G12S) | IC50 (KRas^G12V) | IC50 (KRas^G13D) | IC50 (KRas^Q61H) | IC50 [1] | IC50 [2] | IC50 [3] | IC50 [4] | IC50 [5] | IC50 [6] | IC50 [7] | IC50 [8] | SMILES |
| --- | --- | --- | --- | --- | --- | --- | --- | --- | --- | --- | --- | --- | --- | --- | --- | --- | --- |
| 2 nM |  | < 2 nM | 4 nM |  | < 2 nM | < 2 nM |  |  | 4 nM | 2060 nM | 77 nM | 42 nM | 19 nM | 15 nM | 44 nM | 12 nM | C[C@@H]1C[C@@H]1c1c(Cl)cc(O)cc1-c1ncc2c(N3C[C@@H]4C[C@H](C3)[C@H](O)C4)nc(OC[C@@]34CCCN3C[C@H](F)C4)nc2c1F (stereo in doubt) [Example 920, (1R,5R,6R)-3-(7-(3-chloro-5-hydroxy-2-(cis-2-methylcyclopropyl)phenyl)-8-fluoro-2-(((2R,7aS)-2-fluorotetrahydro-1H-pyrrolizin-7a(5H)-yl)methoxy)pyrido[4,3-d]pyrimidin-4-yl)-3-azabicyclo[3.2.1]octan-6-ol] |
| < 2 nM |  | < 2 nM | < 2 nM |  | < 2 nM | < 2 nM |  |  | 3 nM | 2480 nM | 14 nM | 43 nM | 19 nM | 10 nM | 37 nM | 14 nM | CCc1c(F)ccc2cc(O)cc(-c3ncc4c(N5CCC[C@@](C)(O)C5)nc(OC[C@]56CCCN5CC(=C(F)F)C6)nc4c3F)c12 (single isomer, unassigned) [Example 919] |
| < 2 nM |  | < 2 nM | < 2 nM |  | < 2 nM | < 2 nM |  |  | 1 nM | 490 nM | 3 nM | 17 nM | 4 nM | 5 nM | 12 nM | 3 nM | CCc1c(F)ccc2cc(O)cc(-c3ncc4c(N5CCC[C@@](C)(O)C5)nc(OC[C@@]56CCCN5CC(=C(F)F)C6)nc4c3F)c12 (single isomer, unassigned) [Example 918] |
| < 2 nM |  | < 2 nM | < 2 nM |  | < 2 nM | < 2 nM |  |  | 0.9 nM | 2280 nM | 58 nM | 59 nM | 17 nM | 15 nM | 72 nM | 5 nM | CCc1c(F)ccc2cc(O)cc(-c3ncc4c(N5C[C@@H]6C[C@H](C5)[C@H](O)C6)nc(OCC56CCCN5CC5(CC5)C6)nc4c3F)c12 (stereo partly drawn) [Example 931, (1R,5R,6R)-3-(2-((dihydro-1′H,3′H-spiro[cyclopropane-1,2′-pyrrolizin]-7a′ (5′H)-yl)methoxy)-7-(8-ethyl-7-fluoro-3-hydroxynaphthalen-1-yl)-8-fluoropyrido[4,3-d]pyrimidin-4-yl)-3-azabicyclo[3.2.1]octan-6-ol] |
| < 2 nM |  | < 2 nM | < 2 nM |  | < 2 nM | < 2 nM |  |  | 0.1 nM | 117 nM | 3 nM | 12 nM | 7 nM | 4 nM | 15 nM | 1 nM | C#Cc1c(F)ccc2cc(O)cc(-c3ncc4c(N5CCC[C@@](C)(O)C5)nc(OC[C@]56CCCN5C/C(=C\F)C6)nc4c3F)c12 [Example 801, (3R)-1-(7-(8-ethynyl-7-fluoro-3-hydroxynaphthalen-1-yl)-8-fluoro-2-(((Z)-2-(fluoromethylene)tetrahydro-1H-pyrrolizin-7a(5H)-yl)methoxy)pyrido[4,3-d]pyrimidin-4-yl)-3-methylpiperidin-3-ol] |
| < 2 nM |  | < 2 nM | 2 nM |  | < 2 nM | < 2 nM |  |  | 17 nM | 397 nM | 60 nM | 163 nM | 84 nM | 41 nM | 137 nM | 14 nM | C[C@@H]1C[C@@H]1c1c(Cl)cc(O)cc1-c1ncc2c(N3CCCC4(CNS(=O)(=O)N4)C3)nc(OC[C@@]34CCCN3C[C@H](F)C4)nc2c1F (stereo in doubt) [Example 929, 7-(7-(3-chloro-5-hydroxy-2-(cis-2-methylcyclopropyl)phenyl)-8-fluoro-2-(((2R,7aS)-2-fluorotetrahydro-1H-pyrrolizin-7a(5H)-yl)methoxy)pyrido[4,3-d]pyrimidin-4-yl)-2-thia-1,3,7-triazaspiro[4.5]decane 2,2-dioxide] |
